Results reported in US20070093520A1, “Method of treatment of diarrhea-predominant irritable bowel syndrome in a subject” (priority 2005, published 2007).

Tested on: diarrhea-predominant IBS subjects
Test: 3007 Study: open-label 52-week safety study, adverse events and withdrawals
Settings: P/C group

Cc1nccn1C[C@H]1CCc2c(c3cccc4c3n2CCC4)C1=O [cilansetron, (R)-(−)-4,5,6,8,9,10-hexahydro-10-[(2-methyl-1H-imidazol-1-yl)methyl]-11H-pyrido-[3,2,1-jk]-carbazol-11-one]
18 (6%) n (%): TEAE: Respiratory, Thoracic and Mediastinal Disorders
12 (4%) n (%): TEAE: Reproductive System and Breast Disorders
1 (<1%) n (%): TEAE: Dyspnoea NOS | TEAE: Ear Disorders NEC | TEAE: Ear Pain | TEAE: Eczema | TEAE: Febrile Disorders | TEAE: Fibroma NOS | TEAE: Fluid Intake Increased | TEAE: Food Allergy | TEAE: Gilbert's Syndrome | TEAE: Glucose Tolerance Impaired | TEAE: Glycosuria | TEAE: Hallucination NOS | TEAE: Hallucination, Auditory | TEAE: Hand Fracture | TEAE: Hepatobiliary Disorders | TEAE: Hernia NOS | TEAE: Hernias NEC | TEAE: Hyperkeratoses | TEAE: Hyperkeratosis | TEAE: Hypersensitivity NOS | TEAE: Hypertension Aggravated | TEAE: Hypotension NOS | TEAE: Inborn Errors of Bilirubin Metabolism | TEAE: Influenza Like Illness | TEAE: Ingrowing Nail | TEAE: Inner Ear Infections and Inflammations | TEAE: Irritability | TEAE: Labyrinthitis NOS | TEAE: Lactose Intolerance | TEAE: Laryngeal and Adjacent Sites Disorders NEC (Excl Infections and Neoplasms) | TEAE: Laryngitis NOS | TEAE: Lethargy | TEAE: Libido Decreased | TEAE: Lower Respiratory Tract Signs and Symptoms | TEAE: Lymphadenopathy | TEAE: Lymphangitis and Lymphatic Disorders NEC | TEAE: Menorrhagia* | TEAE: Menstruation Irregular* | TEAE: Menstruation and Uterine Bleeding NEC* | TEAE: Menstruation with Increased Bleeding* | TEAE: Mental Disorders NEC | TEAE: Mental Status Changes | TEAE: Motion Sickness | TEAE: Nail and Nail Bed Conditions (Excl Infections and Infestations) | TEAE: Nasal Congestion and Inflammations | TEAE: Neoplasms Benign Site Unspecified NEC | TEAE: Ocular Disorders NEC | TEAE: Oedema NOS | TEAE: Ovarian Cystadenofibroma* | TEAE: Ovarian Neoplasms Benign* | TEAE: Pain NOS | TEAE: Panic Attack | TEAE: Panic Symptoms | TEAE: Papulosquamous Conditions | TEAE: Partial Vision Loss | TEAE: Perception Disturbances | TEAE: Peripheral Embolism NOS | TEAE: Peripheral Embolism and Thrombosis | TEAE: Polydipsia | TEAE: Polyuria | TEAE: Posterior Capsule Opacification | TEAE: Postnasal Drip | TEAE: Premenopause* | TEAE: Pruritus NEC | TEAE: Pruritus NOS | TEAE: Psoriasis | TEAE: Psychotic Disorder NEC | TEAE: Psychotic Disorder NOS | TEAE: Pyrexia | TEAE: Respiratory Tract Congestion | TEAE: Respiratory Tract Disorders NEC | TEAE: Rhinitis Allergic NOS | TEAE: Seasonal Allergy
5 (2%) n (%): TEAE: Eye Disorders
0 n (%): TEAE: Dysuria | TEAE: Endometriosis* | TEAE: Erythema | TEAE: Erythemas | TEAE: External Ear Disorders NEC | TEAE: Fatigue Aggravated | TEAE: Fluid in Middle Ear | TEAE: Flushing | TEAE: Goitre | TEAE: Gout | TEAE: Haematoma NOS | TEAE: Haematuria | TEAE: Hearing Losses | TEAE: Hepatitis NOS | TEAE: Hepatobiliary Signs and Symptoms | TEAE: Hepatocellular Damage and Hepatitis NEC | TEAE: Hepatosplenomegaly NOS | TEAE: Hernia Repair NOS | TEAE: Hernia Repairs | TEAE: Hot Flushes NOS | TEAE: Hyperlipidaemia NOS | TEAE: Hyperlipidaemias NEC | TEAE: Inner Ear Disorders NEC | TEAE: Insomnia | TEAE: Insomnia Exacerbated | TEAE: Intermenstrual Bleeding* | TEAE: Ischaemic Coronary Artery Disorders | TEAE: Lacrimal Disorders | TEAE: Leiomyoma NOS | TEAE: Leukopenia NOS | TEAE: Leukopenias NEC | TEAE: Lid, Lash and Lacrimal Structural Disorders (Excl Congenital) | TEAE: Lipid Metabolism Disorder NOS | TEAE: Lipid Metabolism and Deposit Disorders NEC | TEAE: Lipoma NOS | TEAE: Meniere's Disease | TEAE: Menstruation with Decreased Bleeding* | TEAE: Middle Ear Disorders NEC | TEAE: Myocardial Infarction | TEAE: Normal Pregnancy, Labour and Delivery* | TEAE: Ovarian Cancer NOS* | TEAE: Ovarian Neoplasms Malignant (Excl Germ Cell)* | TEAE: Paranasal Sinus Hypersecretion | TEAE: Peripheral Vascular Disorders NEC | TEAE: Pregnancy NOS* | TEAE: Pregnancy, Puerperium and Perinatal Conditions | TEAE: Premenstrual Syndrome* | TEAE: Productive Cough | TEAE: Proteinuria | TEAE: Purine Metabolism Disorders NEC | TEAE: Refractive Errors NOS | TEAE: Refractive and Accommodative Disorders | TEAE: Renal Lithiasis | TEAE: Retinal Detachment | TEAE: Retinal Structural Change, Deposit and Degeneration | TEAE: Rhinitis NOS | TEAE: Rhinitis Seasonal | TEAE: Rosacea | TEAE: Rosaceas
7 (3%) n (%): TEAE: Pain and Discomfort NEC
4 (1%) n (%): TEAE: Ear and Labyrinth Disorders | TEAE: Hyperglycaemic Conditions NEC | TEAE: Immune System Disorders | TEAE: Rashes, Eruptions and Exanthems NEC | TEAE: Renal and Urinary Disorders
6 (2%) n (%): TEAE: Fatigue | TEAE: Hypertension NOS | TEAE: Neoplasms Benign, Malignant and Unspecified (Incl Cysts and Polyps)
19 (7%) n (%): TEAE: General Disorders and Administration Site Conditions
10 (4%) n (%): TEAE: Metabolism and Nutrition Disorders
1 (1%) n (%): TEAE: Penile Disorders NEC (Excl Erection and Ejaculation)* | TEAE: Penile Haemorrhage* | TEAE: Prostate and Seminal Vesicles Infections and Inflammations* | TEAE: Prostatitis*
2 (<1%) n (%): TEAE: Endocrine Disorders | TEAE: Fall | TEAE: Inner Ear Signs and Symptoms | TEAE: Ocular Nerve and Muscle Disorders | TEAE: Oedema Peripheral | TEAE: Palpitations | TEAE: Pelvic Pain NOS | TEAE: Rash Macular | TEAE: Rash NOS | TEAE: Rate and Rhythm Disorders NEC | TEAE: Reproductive Tract Signs and Symptoms NEC
3 (1%) n (%): TEAE: Elevated Cholesterol | TEAE: General Signs and Symptoms NEC | TEAE: Hypercholesterolaemia | TEAE: Hyperglycaemia NOS | TEAE: Oedema NEC | TEAE: Paranasal Sinus Disorders (Excl Infections and Neoplasms) | TEAE: Pharyngitis
17 (6%) n (%): TEAE: Psychiatric Disorders
